Results reported in US7713994B2 (Wyeth LLC, priority 2005, dated 2010).
Read-outs that look alike come from different tables or passages of the source.

Columns and labels:
cyclin D1/cdk 4 enzyme = target: T1, cyclin D1/cdk 4 enzyme (Homo sapiens, UniProt P11802); assay: CDK4 ELISA kinase assay (phospho-Rb ser 795 detection); format: biochemical
T1 construct: made in house; host or cells: Sf9 insect cells, recombinant baculovirus
In short: (§1)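 GST-Rb C-terminal fragment coated on plates; partially purified Sf9-expressed cyclin D1/CDK4, cyclin E/CDK2 or cyclin B/CDK1 with 200 μM ATP, pH 7.5 HEPES/MgCl2 buffer, 1 h at 30 °C; screen compound final 10 μg/ml. Phospho-Rb Ser795 detected by antibody ELISA (TMB, A450); % of control, IC50 from background-subtracted inhibition curves.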

cyclin E/CDK2 enzyme = target: T2, cyclin E/CDK2 enzyme (Homo sapiens, UniProt P24941); assay: CDK2 ELISA kinase assay (phospho-Rb ser 795 detection); format: biochemical
T2 construct: made in house; host or cells: Sf9 insect cells, recombinant baculovirus
In short: as §1

cyclin B/CDK1 enzyme = target: T3, cyclin B/CDK1 enzyme (Homo sapiens, UniProt P06493); assay: CDK1 ELISA kinase assay (phospho-Rb ser 795 detection); format: biochemical
T3 construct: purchased New England BioLabs; host or cells: Sf9 insect cells, recombinant baculovirus
In short: as §1

BT474 = assay: Cytotoxicity assay (SRB), BT474; format: cell-based
In short: (§2)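 Growth inhibition, SRB method: 3-day continuous compound exposure for HCT-116, LoVo and MCF-7 and 6-day exposure for BT474. Absorbance at 540 nm reflects surviving cell protein relative to controls.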

HCT-116 = assay: Cytotoxicity assay (SRB), HCT-116; format: cell-based; settings: Homo sapiens, HCT-116, 72 h, HCT116 cells, SRB, read-out: In Vitro Cellular Activity IC50 HCT116
In short: as §2

LoVo = assay: Cytotoxicity assay (SRB), LoVo; format: cell-based; settings: Homo sapiens, LoVo, 72 h, LoVo cells, SRB, read-out: In Vitro Cellular Activity IC50 LOVO
In short: as §2

MCF-7 = assay: Cytotoxicity assay (SRB), MCF-7; format: cell-based; settings: Homo sapiens, MCF7, 72 h, MCF-7 cells, SRB, read-out: In Vitro Cellular Activity IC50 MCF-7
In short: as §2

[1] = In Vitro Enzyme Assays, 200 μM ATP, read-out: CDK4 IC50
[2] = In Vitro Enzyme Assays, read-out: CDK2 IC50
[3] = In Vitro Enzyme Assays, read-out: CDK1 IC50
[4] = Homo sapiens, BT-474, 144 h, BT474 cells, SRB, 6 days; read-out: In Vitro Cellular Activity IC50 BT474
[5] = In Vitro Enzyme Assay, cyclin D1/cdk 4, read-out: CDK4 IC50
[6] = In Vitro Enzyme Assay, cyclin E/CDK2, read-out: CDK2 IC50
[7] = In Vitro Enzyme Assay, cyclin B/CDK1, read-out: CDK1 IC50
[8] = Homo sapiens, BT-474, 144 h, BT474 cells, 6 days, SRB; read-out: In Vitro Cellular Activity IC50 BT474

T1 sequence (P11802 whole entry, species assumed): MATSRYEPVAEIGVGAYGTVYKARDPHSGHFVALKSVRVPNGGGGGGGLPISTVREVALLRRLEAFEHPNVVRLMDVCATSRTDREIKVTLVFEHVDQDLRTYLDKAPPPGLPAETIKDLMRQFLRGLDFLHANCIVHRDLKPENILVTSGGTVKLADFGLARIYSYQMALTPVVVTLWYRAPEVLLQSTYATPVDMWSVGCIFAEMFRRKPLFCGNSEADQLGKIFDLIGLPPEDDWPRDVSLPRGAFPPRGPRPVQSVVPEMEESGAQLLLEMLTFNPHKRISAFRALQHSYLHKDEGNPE
T1 sequence (P24385 whole entry partner, species assumed): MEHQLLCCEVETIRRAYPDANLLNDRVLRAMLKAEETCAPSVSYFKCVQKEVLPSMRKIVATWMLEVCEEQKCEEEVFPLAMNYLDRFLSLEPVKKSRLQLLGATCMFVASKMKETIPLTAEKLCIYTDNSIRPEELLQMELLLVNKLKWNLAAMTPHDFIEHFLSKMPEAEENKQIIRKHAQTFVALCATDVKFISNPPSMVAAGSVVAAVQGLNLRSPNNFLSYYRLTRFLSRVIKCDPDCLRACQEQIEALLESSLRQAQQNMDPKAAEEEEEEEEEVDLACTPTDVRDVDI
T3 sequence (P06493 whole entry): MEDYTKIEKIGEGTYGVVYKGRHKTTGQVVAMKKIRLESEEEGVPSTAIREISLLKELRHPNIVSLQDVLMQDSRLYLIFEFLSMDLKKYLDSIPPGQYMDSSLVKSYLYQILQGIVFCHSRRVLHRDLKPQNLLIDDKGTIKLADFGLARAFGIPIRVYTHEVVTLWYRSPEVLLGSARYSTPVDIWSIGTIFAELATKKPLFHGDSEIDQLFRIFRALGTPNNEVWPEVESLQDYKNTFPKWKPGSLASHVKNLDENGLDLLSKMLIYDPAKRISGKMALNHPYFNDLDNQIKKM
T3 sequence (P14635 whole entry partner): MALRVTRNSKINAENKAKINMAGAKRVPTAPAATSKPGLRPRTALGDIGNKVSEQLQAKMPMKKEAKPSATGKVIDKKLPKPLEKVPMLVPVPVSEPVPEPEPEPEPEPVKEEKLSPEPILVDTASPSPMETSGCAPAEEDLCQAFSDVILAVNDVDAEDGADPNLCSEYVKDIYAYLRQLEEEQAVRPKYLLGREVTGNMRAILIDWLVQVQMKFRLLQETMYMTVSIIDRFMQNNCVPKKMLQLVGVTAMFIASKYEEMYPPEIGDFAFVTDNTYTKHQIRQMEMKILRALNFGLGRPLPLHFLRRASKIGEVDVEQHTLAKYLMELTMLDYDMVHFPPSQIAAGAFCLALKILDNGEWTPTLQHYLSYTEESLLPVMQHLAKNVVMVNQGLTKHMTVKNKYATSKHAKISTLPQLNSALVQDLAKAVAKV

Row | SMILES | IC50 (cyclin D1/cdk 4 enzyme; [1]) [µM] | IC50 (cyclin E/CDK2 enzyme; [2]) [µM] | IC50 (cyclin B/CDK1 enzyme; [3]) [µM] | IC50 (BT474; [4]) [µM] | IC50 (HCT-116; three days) [µM] | IC50 (LoVo; three days) [µM] | IC50 (MCF-7; three days) [µM] | melting point | IC50 (cyclin D1/cdk 4 enzyme; [5]) [µM] | IC50 (cyclin E/CDK2 enzyme; [6]) [µM] | IC50 (cyclin B/CDK1 enzyme; [7]) [µM] | IC50 (BT474; [8]) [µM] | IC50 (HCT-116; 3 days) [µM] | IC50 (LoVo; 3 days) [µM] | IC50 (MCF-7; 3 days) [µM]
1 | C[C@@H]1CN(c2ccc(N/C=C3\C(=O)NC(=O)c4ccc(Br)cc43)cc2C(F)(F)F)C[C@H](C)N1 [Example 372, (4Z)-6-Bromo-4-({[4-[(3R,5S)-3,5-dimethylpiperazin-1-yl]-3-(trifluoromethyl)phenyl]amino}methylene)isoquinoline-1,3(2H,4H)-dione] | > 50 | 20.2 | > 50 | 2.9 | 1.2 | 1.4 | 3.2 | 224 to 225 °C | – | – | – | – | – | – | –
2 | CC(=O)Oc1cc(CNC=C2C(=O)NC(=O)c3ccc(Br)cc32)cc(OC(C)=O)c1 [Example 69, Acetic acid 3-acetoxy-5-{[(6-bromo-1,3-dioxo-2,3-dihydro-1H-isoquinolin-4-ylidenemethyl)-amino]-methyl}-phenyl ester] | 0.12 | 44.5 | > 50 | 5.6 | 6.5 | 5.2 | 8.2 | 257 to 258 °C | – | – | – | – | – | – | –
3 | Cc1cc(N/C=C2\C(=O)NC(=O)c3ccc(-c4ccoc4)cc32)cnc1N1C[C@@H](C)N[C@@H](C)C1 [Example 355, (4Z)-4-[({6-[(3R,5S)-3,5-Dimethylpiperazin-1-yl]-5-methylpyridin-3-yl}amino)methylene]-6-(3-furyl)isoquinoline-1,3(2H,4H)-dione] | 0.36 | > 50 | > 50 | 1.7 | 1.2 | 2 | 1.4 | 195 to 196 °C | – | – | – | – | – | – | –
4 | CN1CCN(c2ccc(N/C=C3\C(=O)NC(=O)c4ccc(I)cc43)cn2)CC1 [Example 237, (4Z)-6-Iodo-4-({[6-(4-methylpiperazin-1-yl)pyridin-3-′yl]amino}methylene)isoquinoline-1,3(2H,4H)-dione] | 0.44 | 22.6 | 32.4 | 3.2 | 2.6 | 7.4 | 4 | 189 to 190 °C | – | – | – | – | – | – | –
5 | C[C@@H]1CN(c2ccc(N/C=C3\C(=O)NC(=O)c4ccc(-c5ccsc5)cc43)cc2F)C[C@H](C)N1 [Example 325, (4Z)-4-[({4-[(3R,5S)-3,5-Dimethylpiperazin-1-yl]-3-fluorophenyl}amino)methylene]-6-thien-3-ylisoquinoline-1,3(2H,4H)-dione] | 0.14 | > 50 | 39.7 | 1.2 | 0.72 | 2.4 | 1 | 214 to 215 °C | – | – | – | – | – | – | –
6 | COc1ccc(CN/C=C2\C(=O)NC(=O)c3ccc(NS(=O)(=O)c4ccccc4)cc32)cc1O [Example 196, N-((4Z)-4-{[(3-Hydroxy-4-methoxybenzyl)amino]methylene}-1,3-dioxo-1,2,3,4-′tetrahydroisoquinolin-6-yl)benzenesulfonamide] | 1.1 | 40.6 | > 50 | 37 | 35 | 37 | 38 | 245 to 246 °C | – | – | – | – | – | – | –
7 | COc1ccc2c(c1)/C(=C/NCc1ccc(OC)c(O)c1)C(=O)NC2=O [Example 90, 4-[(3-Hydroxy-4-methoxy-benzylamino)-methylene]-6-methoxy-4H-isoquinoline-1,3-dione] | 0.031 | 2.9 | 22.3 | 6.9 | 9.8 | 24 | 12 | 240 to 242 °C (dec.) | – | – | – | – | – | – | –
8 | CN1CCN(c2ccc(N/C=C3\C(=O)NC(=O)c4ccc(I)cc43)cc2F)CC1 [Example 295, (4Z)-4-({[3-Fluoro-4-(4-methylpiperazin-1-yl)phenyl]amino}methylene)-6-iodoisoquinoline-1,3(2H,4H)-dione] | 1.5 | > 50 | > 50 | 3.1 | 3.1 | 3.7 | 1.8 | 211 to 212 °C | – | – | – | – | – | – | –
9 | COC(=O)Nc1ccc(CN/C=C2\C(=O)NC(=O)c3ccc(Br)cc32)cc1OC(=O)OC [Example 184, 5-({[(Z)-(6-Bromo-1,3-dioxo-2,3-dihydroisoquinolin-4(1H)-′ylidene)methyl]amino}methyl)-2-[(methoxycarbonyl)amino]phenyl methyl carbonate] | 6 | 41.5 | > 50 | 8.5 | 13 | 20 | 50 | 179 to 180 °C | – | – | – | – | – | – | –
10 | CCC(=O)Nc1cnc(CN/C=C2\C(=O)NC(=O)c3ccc(I)cc32)cc1O [Example 470, N-(4-Hydroxy-6-{[(6-iodo-1,3-dioxo-2,3-dihydro-1H-isoquinolin-4-ylidenemethyl)-amino]-methyl}-pyridin-3-yl)-propionamide] | – | – | – | – | – | – | – | 210 to 218 °C (dec.) | 0.05 | 0.19 | 2.5 | 2 | 20.9 | 19.1 | 37.8
11 | CN(C)C[C@@H]1CCCN1Cc1ccc(N/C=C2\C(=O)NC(=O)c3ccc(I)cc32)cc1 [Example 423] | 1.4 | > 50 | > 50 | – | – | – | – | 130 to 131 °C | – | – | – | 5.4 | 3.8 | 4.5 | 4.3
12 | O=C1NC(=O)c2ccc(I)cc2/C1=C/Nc1ccc(CN2CCC(CCO)CC2)cc1 [Example 480, (4Z)-4-{[(4-{[4-(2-Hydroxyethyl)piperidin-1-yl]methyl}phenyl)amino]methylene}-6-iodoisoquinoline-1,3(2H,4H)-dione] | – | – | – | – | – | – | – | 223 to 224 °C | 0.21 | 26.5 | > 50 | 1 | 3.3 | 4.5 | 1.6
13 | COc1ccc(-c2ccc3c(c2)/C(=C/Nc2ccc(N4C[C@@H](C)N[C@@H](C)C4)c(F)c2)C(=O)NC3=O)cc1 [Example 345, (4Z)-4-[({4-[(3R,5S)-3,5-Dimethylpiperazin-1-yl]-3-fluorophenyl}amino)methylene]-6-(4-methoxyphenyl)isoquinoline-1,3(2H,4H)-dione] | 15.4 | 43.4 | 28.3 | 0.91 | 0.94 | 1.2 | 1.4 | 227 to 228 °C | – | – | – | – | – | – | –
14 | CCCOc1cn(C)c(CN/C=C2\C(=O)NC(=O)c3ccc(I)cc32)cc1=O [Example 471, 6-Iodo-4-{[(1-methyl-4-oxo-5-propoxy-1,4-dihydro-pyridin-2-ylmethyl)-amino]-methylene}-4H-isoquinoline-1,3-dione] | – | – | – | – | – | – | – | 176 to 196 °C (dec.) | 0.007 | 28.7 | > 50 | 21.9 | > 50 | > 50 | > 50
15 | CN1CCN(c2ccc(N/C=C3\C(=O)NC(=O)c4ccc(NS(=O)(=O)c5ccccc5)cc43)cc2)CC1 [Example 188, 1,2,3,4-Tetrahydroisoquinolin-6-yl]benzenesulfonamide′N-[(4Z)-4-({[4-(4-methylpiperazin-1-yl)phenyl]amino}methylene)-1,3-dioxo] | 33.2 | 39.7 | 24.2 | 3.3 | 2.2 | 11 | 12 | 289 to 290 °C | – | – | – | – | – | – | –
